# Experimental data taken from patent US4701205A, “Chemical tobacco sucker control” (Chevron Research Company, priority 1986, dated 1987).
# Like-named read-outs stand apart in the source and are kept apart here.
# Legend:
# [1] = test system: tobacco suckers (axillary buds); assay: Tobacco sucker control, soil drench treatment; format: in vivo; conditions: for inhibition at 400 µg/mL: Nicotiana tabacum, read-out: Percent Bud Inhibition Top Three Nodes
# Method: (§1) Twenty-four hours before treatment, the tobacco plants are "topped", removing the top 15 cm of the plant. Any plants which are tending to lean or bend in the pot were staked, and all pots labeled. Three to five replicates were used per treatment. A 5% wt. stock solution of each test compound dissolved in acetone containing a small amount of non-ionic emulsifier was prepared. The stock solution was appropriately diluted with deionized water containing 0.625 g of emulsifier per liter of water, to the desired spray solution concentration.
# (§2) Plants were sprayed to point of run-off with a pressure atomizer, making sure that the stem, leaf axils, and leaves were all wet thoroughly with the solution. 30 to 35 ml of solution were used per plant. This was checked by recording volume of solution in sprayer reservoir before and after treatment. After spraying, the plants were incubated for 18 to 23 days in a greenhouse maintained at 70°-80° F. using standing water capilliary irrigation. The plants were uniformly fertilized once per week with a standard house plant fertilizer. After the incubation period, the plants were evaluated at various times for sucker control. To make this evaluation, the axillary buds at the top three nodes (primary suckers) of each plant were compared to those of the check, and a visual estimation of percent inhibition was made wherein 0=no inhibition of axillary buds as compared with check and 100=no axillary buds at top three nodes. The growth of secondary suckers (buds at lower nodes) when present, were also measured.
# (§3) In this example, the title compound of Example 1 was tested side-by-side with maleic hydrazide for tobacco sucker control (inhibition), when applied as a soil drench and also when applied only to the leaves of the plant. The same general procedure as described in Example 3 was used with the exception that the test compound was applied only to the expanded leaves for foliage treatment (foliar paint) and the compound was drenched only on the soil in the pot for soil drench treatment. The average results of these tests are given in the following table, wherein 0=no inhibition and 100=complete inhibition, i.e., no axillary buds.
# [2] = test system: tobacco suckers (axillary buds); assay: Tobacco sucker control, foliar paint (expanded leaves only); format: in vivo; conditions: for inhibition at 400 µg/mL: Nicotiana tabacum, read-out: Percent Bud Inhibition Top Three Nodes; for Sucker control when applied only to the leaves (systemic action), in words: applied only to the leaves of the tobacco plant
# Method: as §1, §2, §3
# [3] = test system: tobacco suckers (axillary buds), Var. 12 × L8; assay: whole plant or invertebrate; format: in vivo, Nicotiana tabacum; conditions: for inhibition at 200 µg/mL / inhibition at 400 µg/mL / inhibition at 800 µg/mL: Nicotiana tabacum, read-out: Percent Bud Inhibition Top Two Nodes; for Mean # of Nodes with Secondary Suckers / Mean Sucker Length (cm): Table 3
# Method: as §1
# as §2, with “To make this evaluation, the axillary buds at the top three nodes (primary suckers) of each plant were compared to those of the check, and a visual estimation of percent inhibition was made wherein 0=no inhibition of axillary buds as compared with check and 100=no axillary buds at top three nodes.” left out
# (§4) In some instances, comparisons were also made on the basis of sucker length.
# (§5) The results are reported as an average of the replicates used in each test.
# (§6) In this example, the title compound of Example 1 was tested side-by-side with maleic hydrazide ("C-2") with respect to axillary bud control in two varities of tobacco plants. These tests were conducted following the same general procedure as described in Example 3 hereinabove using the dosage concentrations given in the tables hereinbelow. […]
# [4] = test system: tobacco suckers (axillary buds), Var. Glurk; assay: Tobacco sucker control, spray to run-off on topped plants, Var. Glurk; format: in vivo, Nicotiana tabacum; conditions: for inhibition at 200 µg/mL / inhibition at 400 µg/mL / inhibition at 800 µg/mL / inhibition at 1600 µg/mL: Nicotiana tabacum; for Mean # of Nodes with Secondary Suckers / Mean Sucker Length (cm): Table 3
# Method: In this example, the title compound of Example 1 (i.e., 2-[1-(3-trans-chloroallyloxyamino)ethylidene]-5-(2-ethylthiopropyl)cyclohexane-1,3-dione was tested side-by-side with 2-[1-(3-trans-chloroallyloxyamino)butylidene]-5-(2-ethylthio-propyl)-cyclohexane-1,3-dione for their ability to control (retard or prevent) lateral axillary buds in tobacco plants.
# as §1
# as §2, with “To make this evaluation, the axillary buds at the top three nodes (primary suckers) of each plant were compared to those of the check, and a visual estimation of percent inhibition was made wherein 0=no inhibition of axillary buds as compared with check and 100=no axillary buds at top three nodes.” left out
# as §4, §5, §6
# [5] = Soil Drench, 400 mg/l, six weeks after treatment
# [6] = 200 mg/l spray, six weeks after treatment
# [7] = 400 mg/l spray, six weeks after treatment
# [8] = 800 mg/l spray, six weeks after treatment
# [9] = 504 h, read-out: Percent Bud Inhibition Top Two Nodes
# [10] = 1008 h, read-out: Percent Bud Inhibition Top Two Nodes
# [11] = 504 h, Table I, 400 mg/l spray, three weeks after treatment, read-out: Percent Bud Inhibition
# [12] = 504 h, Table I, 800 mg/l spray, three weeks after treatment, read-out: Percent Bud Inhibition
# [13] = 504 h, Table I, 1600 mg/l spray, three weeks after treatment, read-out: Percent Bud Inhibition
# [14] = 1008 h, Table I, 400 mg/l spray, six weeks after treatment, read-out: Percent Bud Inhibition Top two Nodes
# [15] = 1008 h, Table I, 800 mg/l spray, six weeks after treatment, read-out: Percent Bud Inhibition Top two Nodes
# [16] = 1008 h, Table I, 1600 mg/l spray, six weeks after treatment, read-out: Percent Bud Inhibition Top two Nodes
# [17] = Table I, 400 mg/l spray, six weeks after treatment
# [18] = Table I, 400 mg/l spray, three weeks after treatment
# [19] = Table I, 800 mg/l spray, six weeks after treatment
# [20] = Table I, 800 mg/l spray, three weeks after treatment
# [21] = Table I, 1600 mg/l spray, six weeks after treatment
# [22] = Table I, 1600 mg/l spray, three weeks after treatment
compound,measurement,setting,value
"CCC(C)Nc1c([N+](=O)[O-])cc(C(C)(C)C)cc1[N+](=O)[O-] (stereo not shown) [Compound C-3, 4-(1,1-dimethylethyl)-N--(1-methyl-propyl)-2,6-dinitrobenzenamine]",inhibition at 400 µg/mL,"[1]; soil, 1008 h",27%
same,"Sucker control when applied as a soil drench (systemic action), in words",[1],ineffective
same,inhibition at 400 µg/mL,"[2]; foliar, 1008 h",3%
same,"Sucker control when applied only to the leaves (systemic action), in words",[2],ineffective
"O=c1ccc(=O)[nH][nH]1 [Compound C-2, maleic hydrazide]",inhibition at 400 µg/mL,"[1]; soil, 504 h",79%
same,inhibition at 400 µg/mL,"[1]; soil, 1008 h",84%
same,Observation on new growth (footnote b),[1]; [5],new growth deformedstrap shaped leaves
same,Observation on suckers at basal nodes (footnote a),[1]; [5],some suckers appearing at basal nodes
same,"Sucker control when applied as a soil drench (systemic action), in words",[1],operates sytemically
same,inhibition at 200 µg/mL,[3]; 504 h,0%
same,inhibition at 400 µg/mL,[3]; 504 h,23%
same,inhibition at 800 µg/mL,[3]; 504 h,95%
same,inhibition at 200 µg/mL,[3]; 1008 h,12.7%
same,inhibition at 400 µg/mL,[3]; 1008 h,54.1%
same,inhibition at 800 µg/mL,[3]; 1008 h,100%
same,Mean # of Nodes with Secondary Suckers,[3]; [6],0.3
same,Mean Sucker Length (cm),[3]; [6],3.0 cm
same,Mean # of Nodes with Secondary Suckers,[3]; [7],1.3
same,Mean Sucker Length (cm),[3]; [7],76.8 cm
same,Mean # of Nodes with Secondary Suckers,[3]; [8],5.3
same,Mean Sucker Length (cm),[3]; [8],25.8 cm
same,inhibition at 400 µg/mL,"[2]; foliar, 504 h",15%
same,inhibition at 400 µg/mL,"[2]; foliar, 1008 h",0%
same,"Sucker control when applied only to the leaves (systemic action), in words",[2],does not translocate effectively
same,inhibition at 200 µg/mL,[4]; [9],10%
same,inhibition at 400 µg/mL,[4]; [9],88%
same,inhibition at 800 µg/mL,[4]; [9],93%
same,inhibition at 200 µg/mL,[4]; [10],31.1%
same,inhibition at 400 µg/mL,[4]; [10],100%
same,inhibition at 800 µg/mL,[4]; [10],100%
same,Mean # of Nodes with Secondary Suckers,[4]; [6],0
same,Mean Sucker Length (cm),[4]; [6],0 cm
same,Mean # of Nodes with Secondary Suckers,[4]; [7],1.5
same,Mean Sucker Length (cm),[4]; [7],51.0 cm
same,Mean # of Nodes with Secondary Suckers,[4]; [8],2.5
same,Mean Sucker Length (cm),[4]; [8],31.0 cm
"CCSC(C)CC1CC(=O)C(=C(C)NOC/C=C/Cl)C(=O)C1 (stereo not drawn) [Compound 1, Trans-2-[1-(3-chloroallyloxyamino)-ethylidene]-5-(2-ethylthiopropyl)-cyclohexane-1,3-dione]",inhibition at 400 µg/mL,"[1]; 504 h, Soil Drench (30 ml/pot), 400 mg/l, three weeks after treatment",100%
same,inhibition at 400 µg/mL,"[1]; 1008 h, Soil Drench (30 ml/pot), 400 mg/l, six weeks after treatment",100%
same,"Sucker control when applied as a soil drench (systemic action), in words",[1],highly effective
same,inhibition at 200 µg/mL,"[3]; 504 h, Table 2, 200 mg/l spray, three weeks after treatment",95%
same,inhibition at 400 µg/mL,"[3]; 504 h, Table 2, 400 mg/l spray, three weeks after treatment",93%
same,inhibition at 800 µg/mL,"[3]; 504 h, Table 2, 800 mg/l spray, three weeks after treatment",95%
same,inhibition at 200 µg/mL,"[3]; 1008 h, Table 2, 200 mg/l spray, six weeks after treatment",86.3%
same,inhibition at 400 µg/mL,"[3]; 1008 h, Table 2, 400 mg/l spray, six weeks after treatment",96.9%
same,inhibition at 800 µg/mL,"[3]; 1008 h, Table 2, 800 mg/l spray, six weeks after treatment",96.8%
same,Mean # of Nodes with Secondary Suckers,[3]; [6],4.0
same,Mean Sucker Length (cm),[3]; [6],24.0 cm
same,Mean # of Nodes with Secondary Suckers,[3]; [7],2.6
same,Mean Sucker Length (cm),[3]; [7],45.3 cm
same,Mean # of Nodes with Secondary Suckers,[3]; [8],2.3
same,Mean Sucker Length (cm),[3]; [8],17.4 cm
same,Observation on suckers at basal nodes (footnote a),"[2]; Foliar Paint, 400 mg/l, six weeks after treatment",some suckers appearing at basal nodes
same,inhibition at 400 µg/mL,"[2]; 504 h, Foliar Paint (Leaves Only), 400 mg/l, three weeks after treatment",98%
same,inhibition at 400 µg/mL,"[2]; 1008 h, Foliar Paint (Leaves Only), 400 mg/l, six weeks after treatment",99%
same,"Sucker control when applied only to the leaves (systemic action), in words",[2],highly effective
same,inhibition at 200 µg/mL,"[4]; 504 h, Table 2, 200 mg/l spray, three weeks after treatment, read-out: Percent Bud Inhibition Top Two Nodes",100%
same,inhibition at 400 µg/mL,"[4]; 504 h, Table 2, 400 mg/l spray, three weeks after treatment, read-out: Percent Bud Inhibition Top Two Nodes",100%
same,inhibition at 800 µg/mL,"[4]; 504 h, Table 2, 800 mg/l spray, three weeks after treatment, read-out: Percent Bud Inhibition Top Two Nodes",100%
same,inhibition at 400 µg/mL,[4]; [11],100%
same,inhibition at 800 µg/mL,[4]; [12],100%
same,inhibition at 1600 µg/mL,[4]; [13],100%
same,inhibition at 200 µg/mL,"[4]; 1008 h, Table 2, 200 mg/l spray, six weeks after treatment, read-out: Percent Bud Inhibition Top Two Nodes",100%
same,inhibition at 400 µg/mL,"[4]; 1008 h, Table 2, 400 mg/l spray, six weeks after treatment, read-out: Percent Bud Inhibition Top Two Nodes",100%
same,inhibition at 800 µg/mL,"[4]; 1008 h, Table 2, 800 mg/l spray, six weeks after treatment, read-out: Percent Bud Inhibition Top Two Nodes",100%
same,inhibition at 400 µg/mL,[4]; [14],100%
same,inhibition at 800 µg/mL,[4]; [15],100%
same,inhibition at 1600 µg/mL,[4]; [16],100%
same,Mean # of Nodes with Secondary Suckers,[4]; [6],2.5
same,Mean Sucker Length (cm),[4]; [6],30.8 cm
same,Mean # of Nodes with Secondary Suckers,[4]; [7],1.5
same,Mean Sucker Length (cm),[4]; [7],9.6 cm
same,Mean # of Nodes with Secondary Suckers,[4]; [8],0.5
same,Mean Sucker Length (cm),[4]; [8],10.0 cm
same,Number of Secondary Suckers (axillary buds at lower nodes),[4]; [17],2.3
same,Total Sucker Length,[4]; [17],24 cm
same,Number of Usable Leaves,[4]; [18],6.7
same,Number of Secondary Suckers (axillary buds at lower nodes),[4]; [19],1.3
same,Total Sucker Length,[4]; [19],7 cm
same,Number of Usable Leaves,[4]; [20],6.7
same,Number of Secondary Suckers (axillary buds at lower nodes),[4]; [21],0
same,Total Sucker Length,[4]; [21],0 cm
same,Number of Usable Leaves,[4]; [22],6.3
"CCCC(NOC/C=C/Cl)=C1C(=O)CC(CC(C)SCC)CC1=O (stereo not drawn) [Compound C-1, 2-[1-(3-trans-chloroallyloxyamino)butylidene]-5-(2-ethylthio-propyl)-cyclohexane-1,3-dione]",inhibition at 400 µg/mL,[4]; [11],0%
same,inhibition at 800 µg/mL,[4]; [12],0%
same,inhibition at 1600 µg/mL,[4]; [13],7%
same,inhibition at 400 µg/mL,[4]; [14],0%
same,inhibition at 800 µg/mL,[4]; [15],0%
same,inhibition at 1600 µg/mL,[4]; [16],0%
same,Number of Secondary Suckers (axillary buds at lower nodes),[4]; [17],0
same,Total Sucker Length,[4]; [17],0 cm
same,Number of Usable Leaves,[4]; [18],7.3
same,Number of Secondary Suckers (axillary buds at lower nodes),[4]; [19],0
same,Total Sucker Length,[4]; [19],0 cm
same,Number of Usable Leaves,[4]; [20],7.7
same,Number of Secondary Suckers (axillary buds at lower nodes),[4]; [21],0
same,Total Sucker Length,[4]; [21],0 cm
same,Number of Usable Leaves,[4]; [22],6.0
